Reference: patent US6121241A, “Anticoagulant peptide aldehyde derivatives” (Gyogyszerkutato Intezet Kft., priority 1996, dated 2000)
Where a name gives a salt, the structure may show the parent alone. Read-outs that look alike come from different tables or passages of the source. Square brackets hold non-standard residues; d marks the D form. Peptide text beside a SMILES is read from it. * marks the point of attachment. 1Nal = N[C@@H](Cc1cccc2ccccc12)C(=O)O; Boc = CC(C)(C)OC(=O)*

Assays:
[1] = target: tissue plasminogen activator (tPA) (Homo sapiens, UniProt P00750); test: Fibrin-plate method, plasmin formation induced by tPA; type: biochemical; details: for IC50: fibrin-plate method, hydrolyzed area reduced by 50%
Chain of tissue plasminogen activator (tPA) (P00750 36-562, species assumed): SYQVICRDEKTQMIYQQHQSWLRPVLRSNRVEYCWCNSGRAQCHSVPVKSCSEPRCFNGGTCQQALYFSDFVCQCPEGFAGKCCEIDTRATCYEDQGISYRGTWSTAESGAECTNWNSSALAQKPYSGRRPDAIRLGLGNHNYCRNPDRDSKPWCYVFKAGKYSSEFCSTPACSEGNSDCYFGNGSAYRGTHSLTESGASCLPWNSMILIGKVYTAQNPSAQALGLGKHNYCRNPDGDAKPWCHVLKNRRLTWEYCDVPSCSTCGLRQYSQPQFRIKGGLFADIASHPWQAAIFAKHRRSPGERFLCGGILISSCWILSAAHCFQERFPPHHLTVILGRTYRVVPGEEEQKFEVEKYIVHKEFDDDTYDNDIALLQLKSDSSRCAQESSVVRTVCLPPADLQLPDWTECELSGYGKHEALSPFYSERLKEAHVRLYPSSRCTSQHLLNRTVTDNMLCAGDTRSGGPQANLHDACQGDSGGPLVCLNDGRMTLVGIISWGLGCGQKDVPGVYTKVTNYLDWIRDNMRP
Description: (§1) The inhibitory effect of the new compounds of the invention on plasmin (PL) as well as on plasmin formation induced by tissue plasminagen activator (tPA) and urokinase (UK) was studied by the […] [D. Bagdy et al.; Thromb. Haemost. 67, 325 (1992)]. Compounds C1 and C3 served as controls. […] V. Jackson et al., J. Cardiovasc. Pharmacol. 21, 587 (1993)].
(§2) ^a IC50 = peptide concentration (mM) where the hydrolyzed area o
(§3) the fibrin plate is reduced by 50% compared to the control

[2] = target: urokinase (UK) (Homo sapiens, UniProt P00749); test: Fibrin-plate method, plasmin formation induced by urokinase; type: biochemical; details: for IC50: fibrin-plate method, hydrolyzed area reduced by 50%
Description: as §1, §2, §3

[3] = tested on: citrate plasma coagulation (PT); test: Prothrombin time (PT) plasma clotting test; type: biochemical; details: concentration doubling clotting time
Procedure: (§4) Anticoagutant activity (i.e. inhibition of the proteolytic reactions in the process) is measured by anticoagulant tests, e.g. by the thrombin time (TT), activated partial thromboplastin time (APTT) and prothrombin time (PT) tests [E. J. W. Bovie et al; Mayo Clinic Laboratory Manual of Hemostasis; W. B. Sanuders Co., Philadelphia (1971)]. Plasma, inhibited in spontaneous coagulation, e.g. citrate-plasma, is made to coagulate and the required coagulation time is measured. Upon the action of anticoagulants the coagulation time is prolonged proportionally to the inhibition of the reaction(s) in the process. The anticoagulant effect can be characterized by the substance concentration required to double the coagulation time compared to the control (IC50). The effect of anticoagulants on individual coagulant proteases is measured by the amidolytic method [R. Lottenberg et al., Methods in Enzymol. 80, 341 (1981); G. Cleason, Blood Coagulation and Fibrinolysis 5, 411 (1994)]. The isolated active factor (e.g. thrombin, fXa) and its chromogen or fluorogen peptide-amide substrate are reacted in the presence or absence of the inhibitor, resp. The enzyme inhibiting action is characterized by the inhibitory constant (IC50) measured during amidolysis.
(§5) In the TT test coagulation is initiated by the thrombin added to the citrate plasma. In the system 22 pmol/mL of thrombin is functioning and in the presence of plasma components its inhibition can be measured on the fibrinogen (one of the natural substrates of thrombin) present In the APTT and PT tests the full coagulation process is made to proceed. Depending on the activator fX is activated by the extrinsic or intrinsic pathway. The generated fXa activates prothrombin to thrombin which, in turn, triggers plasma coagulation. In the test the coagulation time is prolonged if the enzymes or one of them is inhibited by the inhibitor. In the APTT and PT tests at most 40 pmole/ml Xa is generated (this is the full amount of factor X present in both systems) while 150 pmole/ml (APTT) and 350 pmole/ml (PT) are generated from thrombin [B Kaiser et al., Thromb. Res. 65, 157 (1992)].
(§6) The in vitro anticoagulant effect of the compounds of general formula (I) was measured by the prothrombin time (PT), activated partial thromboplastin time (APTT) and thrombin time (TT) tests [D. Bagdy et at., Thromb. Haemost. 67, 325 (1992)]. The Xa-factor-inhibiting effect of the compounds was also determined by using the Bz-Ile-Glu-Gly-Arg-pNA chromogen substrate (see method M6).

[4] = target: T1, thrombin (Homo sapiens, UniProt P00734); test: Thrombin time (TT) plasma clotting test; type: biochemical; details: concentration doubling clotting time
T1 construct: The isolated active factor (e.g. thrombin, fXa) and its chromogen or fluorogen peptide-amide substrate are reacted
Procedure: as §4, §5, §6

[5] = target: T2, human factor Xa (Homo sapiens, UniProt P00742); test: Inhibition of the amidolytic effect of factor Xa in solution on Bz-Ile-Glu-Gly-Arg-pNA (method M6); type: biochemical
T2 construct: purchased SIGMA
T2 sequence (P00742 235-488 limits assumed): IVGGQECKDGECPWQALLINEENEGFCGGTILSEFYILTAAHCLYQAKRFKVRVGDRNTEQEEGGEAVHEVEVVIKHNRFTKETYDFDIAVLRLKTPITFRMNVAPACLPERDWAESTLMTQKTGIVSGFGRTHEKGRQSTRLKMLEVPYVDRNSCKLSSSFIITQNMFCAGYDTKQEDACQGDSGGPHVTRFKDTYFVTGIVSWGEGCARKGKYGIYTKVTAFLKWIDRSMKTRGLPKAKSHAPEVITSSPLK
T2 sequence (P00742 41-179 partner limits assumed): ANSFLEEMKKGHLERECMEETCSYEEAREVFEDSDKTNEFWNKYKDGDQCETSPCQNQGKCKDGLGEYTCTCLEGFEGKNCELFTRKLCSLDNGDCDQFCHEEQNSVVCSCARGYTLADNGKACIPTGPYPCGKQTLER
Procedure: as §4, §6
Assay of the Inhibition of Factor Xa in Solution on a 96-well Microtiter Plate
a) 1.3 U/mL factor Xa (human, SIGMA), 0.1-1.0-10 and 100 μg/mL solutions in phosphate buffer (0.1 M sodium phosphate and 0.05 M sodium chloride, pH 7.4) of the peptide inhibitors and […] solutions of the substrate Bz-Ile-Glu-Gly-Arg-pNA in distilled water are used.
b) Three reaction mixtures are prepared from the control and each peptide solution. 30 μL each of the peptide and the buffer, serving as control, 30 μL factor Xa, 90 μL butter and 150 μL substrate are placed in the wells of the plate, then after 10 minutes the extinction values are read at 405 nm The procedure is continued as described in Method M2, point c).

[6] = target: plasmin (PL) (Homo sapiens, UniProt P00747); test: Fibrin-plate method, plasmin; type: biochemical; details: for IC50: fibrin-plate method, hydrolyzed area reduced by 50%
Chain of plasmin (PL) (P00747 581-810 limits assumed, species assumed): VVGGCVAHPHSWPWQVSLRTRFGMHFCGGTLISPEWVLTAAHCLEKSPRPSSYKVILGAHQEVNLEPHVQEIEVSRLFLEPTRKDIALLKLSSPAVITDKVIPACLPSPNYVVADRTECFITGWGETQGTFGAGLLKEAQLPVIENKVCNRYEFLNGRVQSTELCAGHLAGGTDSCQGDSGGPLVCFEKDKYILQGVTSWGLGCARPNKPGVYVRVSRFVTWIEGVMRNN
Chain of plasmin (PL) (P00747 97-580 partner limits assumed, species assumed): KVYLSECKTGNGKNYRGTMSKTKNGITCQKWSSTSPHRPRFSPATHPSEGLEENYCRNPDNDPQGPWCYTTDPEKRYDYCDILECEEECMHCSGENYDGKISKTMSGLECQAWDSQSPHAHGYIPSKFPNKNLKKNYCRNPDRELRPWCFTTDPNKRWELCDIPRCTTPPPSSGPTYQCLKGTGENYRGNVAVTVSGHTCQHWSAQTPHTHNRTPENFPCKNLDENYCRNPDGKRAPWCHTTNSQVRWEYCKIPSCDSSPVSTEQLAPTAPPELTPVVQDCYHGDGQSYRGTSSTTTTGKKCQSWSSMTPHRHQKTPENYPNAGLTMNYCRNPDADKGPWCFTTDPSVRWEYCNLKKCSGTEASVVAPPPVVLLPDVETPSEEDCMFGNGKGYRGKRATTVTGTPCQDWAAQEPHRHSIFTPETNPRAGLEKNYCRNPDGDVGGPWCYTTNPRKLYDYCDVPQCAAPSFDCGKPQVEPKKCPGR
Description: as §1, §2, §3

[7] = tested on: citrate plasma coagulation (APTT); test: Activated partial thromboplastin time (APTT) plasma clotting test; type: biochemical; details: concentration doubling clotting time
Procedure: as §4, §5, §6

[8] = tested on: citrate plasma coagulation (PT); details: Table 1; published value; read-out: B: IC50, PT; cited from earlier work
[9] = tested on: citrate plasma coagulation (APTT); details: Table 1; published value; read-out: B: IC50, APTT; cited from earlier work
[10] = target: T1, thrombin; details: specific fXa inhibitors, literature; cited from earlier work
[11] = target: fXa (Homo sapiens, UniProt P00742); details: Z-D-Arg-Gly-Arg-pNA substrate; according to the literature; read-out: IC50, amidolytic activity of fXa; cited from earlier work
Chain of fXa (P00742 235-488 limits assumed): as the sequence (P00742 235-488 limits assumed) above
Chain of fXa (P00742 41-179 partner limits assumed): as the sequence (P00742 41-179 partner limits assumed) above

[12] = target: T3, plasma clot entrapped thrombin (Homo sapiens, UniProt P00734); test: Inhibition of thrombin entrapped in plasma clot (methods M1, M3); type: biochemical; details: platelet-rich human plasma clot; Tos-Gly-Pro-Arg-pNA substrate
T3 construct: Here prothrombin is converted to thrombin; from tissue; host or cells: clot of recalcified platelet-rich human citrate plasma
Procedure: (§7) The plasma clot was obtained by the recalcification of platelet-rich human citrate plasma and fibrin gel by the coagulation of human fibrinogen with human thrombin Z-D-Arg-Gly-Arg-pNA and Tos Gly-Pro-Arg-pNA were used as substrates for measuring the activity of factor Xa and thrombin (methods M1-M5).
Preparation of Plasma Clot
a) Platelet-rich plasma (PRP) is prepared by centrifuging a 9:1 mixture of human blood and 3.8% aqueous sodium citrate solution (1/2) for 5 minutes at 240×g.
b) 200 μL of PRP are placed in each reaction vessel, 80 μL of 40 mM calcium chloride solution is added and the mixture is left to stand at room temperature for one hour. The plasma clot formed is rinsed mildly with 6×2 ml of 0.9% sodium chloride solution followed by 5 minute sedimentation to remove the dissolved enzymes (factor Xa and thrombin). The thrombin content of the washings is assayed as follows.
c) To 400 μL of washing liquid 100 μL of 1 mM Tos-Gly-Pro-Arg-pNA substrate solution is added and the mixture is incubated for 30 minutes at 37° C., then the reaction is stopped by the addition of 100 μL of 50% acetic acid. 150 μL portions of this mixture are transferred into the wells of the 96-well microtiter plate and the extinction is measured at 405 nm (ELISA READER SLT Laborinstrument GmbH, Austria). When the washing is successful, the extinction is less than 5% of the control
Assay of the Inhibition of Thrombin Entrapped in Plasma Clot
a) Peptide inhibitor solutions are prepared by the process described in Method M2, point a).
b) After draining the washing liquid, 400 μL of the peptide solution (3 parallel samples for each concentration) and 400 μL of buffer, serving as control, are placed on the clot (Method M1) and the mixture is incubated for 5 minutes at 37° C. Thereafter 100 μL of […] Tos-Gly-Pro-Arg-pNA substrate solution is added and incubation at 37° C. is continued for further 30 minutes, then the reaction is stopped by the addition of 100 μL of 50% acetic acid. The operation is continued as described in Method M2, point c).

[13] = target: T4, fibrin-gel bound thrombin (Homo sapiens, UniProt P00734); test: Inhibition of thrombin bound to fibrin-gel (methods M4, M5); type: biochemical; details: Tos-Gly-Pro-Arg-pNA substrate
T4 construct: Here prothrombin is converted to thrombin; purchased SIGMA
Procedure: as §7
Preparation of Fibrin-Gel
a) 200 μL of 6 mg/mL human fibrinogen (SIGMA), 25 μL of 25 NIH U/mL human thrombin (SIGMA) and 40 μL of 100 mM calcium chloride solution are placed in each reaction vessel and the mixtures are stored for one hour at 20-22° C. The fibrin formed is rinsed mildly with 3×2 ml of isotonic saline solution followed by sedimentation to remove the thrombin content of the solution. The efficacy of rinsing is controlled by the process described in Method M1, point c).
Assay of the Inhibition of Thrombin Bound to Fibrin-Gel
a) 0.1-1.0-10 and 100 μg/ml solutions are prepared with Hepes/NaCl buffer (0.01 M Hepes and 0.1 M sodium chloride, pH=7.4).
b) Thereafter the procedure described in Method M3, point b) is followed.

[14] = Table 2, Bz-Ile-Glu-Gly-Arg-pNA, isolated human factor Xa, read-out: B: IC50 (factor Xa inhibiting effect)
[15] = Table 2, read-out: A: IC50, APTT
[16] = Table 1, Bz-Ile-Glu-Gly-Arg-pNA chromogen substrate, read-out: A: IC50 (fXa inhibiting effect)
[17] = Table 1, read-out: B: IC50, APTT
[18] = related to the activity of C1 (1/IC50 = 1)

N=C(N)NCCC[C@@H](C=O)NC(=O)[C@H]1CCCN1C(=O)C(O)C1CCCC1.N=C(N)NCCC[C@@H](C=O)NC(=O)[C@H]1CCCN1C(=O)C(O)C1CCCC1.O=S(=O)(O)O (stereo partly drawn) [Compound 2, D-2-Cyclopentyl-2-hydroxyacetyl-L-prolyl-L-arginine aldehyde hemisulfate]
B: relative efficacy, tPA [1]: 1.2
IC50 [1]: 112 µM
times lower activity than compound C3, second enzyme (tPA) ([1]; versus C3 of Table 4): 12
B: relative efficacy, UK [2]: 0.6
IC50 [2]: 137 µM
times lower activity than compound C3, third enzyme (UK) ([2]; versus C3 of Table 4): 39
IC50 ([3]; Table 2, read-out: A: IC50, PT): 2.03 µM
IC50 ([4]; Table 2, read-out: A: IC50, TT): 100 nM
IC50 [5, 14]: 107 nM
B: relative efficacy, PL [6]: 0.13
IC50 [6]: 390 µM
times lower activity than compound C3, first enzyme (PL) ([6]; versus C3 of Table 4): 7.5
IC50 [7, 15]: 710 nM

CC(=N)N1CC[C@H](Oc2ccc([C@H](Cc3ccc4ccc(C(=N)N)cc4c3)C(=O)O)cc2)C1 [Compound C2, (+)-(2S)-2-[4[[(3S)-1-acetimidoyl-3-pyrrolidinyl]oxy]phenyl]-3-[7[amidino-2-naphthyl]-propionic acid hydrochloride pentahydrate]
IC50 [8]: 520 nM
IC50 [9]: 970 nM
activity in the TT test [10]: fail to exert any activity

4-MeP-Asp-Pro-Arg-H [Compound C3]
IC50 ([3]; Table 1, read-out: B: IC50, PT): 19.3 µM
IC50 [11]: 57 nM
IC50 ([4]; Table 1, read-out: B: IC50, TT): 870 nM
IC50 [5, 16]: 64 nM
IC50 [7, 17]: 4590 nM

CC(C)(C)OC(=O)N[C@H](Cc1ccccc1)C(=O)N[C@@H](Cc1cccc2ccccc12)C(=O)N[C@H](C=O)CCCN=C(N)N [Compound C4, Boc-D-Phe-Nal(1)-Arg-H] (Boc-[dF]-[1Nal]-Arg-aldehyde)
IC50 ([3]; Table 1, read-out: B: IC50, PT): 53.6 µM
IC50 [11]: 30 nM
IC50 ([4]; Table 1, read-out: B: IC50, TT): 17200 nM
IC50 [5, 16]: 86 nM
IC50 [7, 17]: 9960 nM

TAP: 60-member polypeptide isolated from tick, fXa inhibitor (YNRLCIKPRDWIDECDSNEGGERAYFRNGKGGCDSFWICPEDHTGADYYSSYRDCFNACI; UniProt P17726 1-60, looked up)
activity in the TT test [10]: fail to exert any activity

CC(C)(C)OC(=O)N[C@H](Cc1ccccc1)C(=O)N1CCC[C@H]1C(=O)N[C@H](C=O)CCCNC(=N)N [Boc-D-Phe-Pro-Arg-H]
IC50 [1]: 6 µM
B: relative efficacy, tPA [1, 18]: 22.0
IC50 [2]: 3 µM
B: relative efficacy, UK [2, 18]: 27.3
IC50 [6]: 12 µM
B: relative efficacy, PL [6, 18]: 4.5

NC(N)=NCCC[C@@H](C=O)NC(=O)[C@@H]1CCCN1C(=O)[C@H](O)C1CCCCC1 [Compound C5, D-Hma-Pro-Arg-H]
IC50 ([3]; Table 2, read-out: A: IC50, PT): 2.14 µM
IC50 ([4]; Table 2, read-out: A: IC50, TT): 220 nM
IC50 [5, 14]: 247 nM
IC50 [12]: 270 nM
IC50 [13]: 220 nM
IC50 [7, 15]: 790 nM
